Laboratory results as given in ChEMBL document CHEMBL1857833, “Screening and optimization of specific chemical series against human African Trypanosomiasis (HAT)”.
Converted amounts (≈) assume the structure as drawn.

Tests used:
[1] = DNDI: Cytotoxicity against L929 mouse fibroblasts, CYTO-SP, 24 hour; assay type: toxicity, cell-based; details: mouse, L929 mouse fibroblasts
Trypanosoma brucei = assay: DNDI: Inhibition of Human African Trypanosomiasis, SBRI 427, in vitro; assay type: functional, organism-based; details: Trypanosoma brucei, SBRI 427; read-out: IC50
in vitro = details: mouse, liver microsomes, t (1 / 2)
Description: DNDI: half life in mouse liver microsomes at a concentration of 1uM

[2] = mouse, microsomes, 1 µM
Description: DNDI: in vitro intrinsic clearance in mouse liver microsomes at a concentration of 1uM

[3] = DNDI: Lipophilicity measured in Chromatographic hydrophobicity index (CHI) assay, pH 7.4; assay type: physicochemical; details: buffer
[4] = DNDI: Cytotoxicity against L929 mouse fibroblasts, 72 hour.; assay type: toxicity, cell-based; details: mouse, L929 mouse fibroblasts
[5] = DNDI: Solubility in phosphate buffered saline at pH7.4 measured by nephelometry at room temperature (NEPH-RT); assay type: physicochemical; details: pH 7.4

Structure (SMILES) | IC50 at 24 h [1] | IC50 (Trypanosoma brucei) | half-life at 1 µM (in vitro) | CLint in vitro [2] | chromatographic logD [3] | IC50 at 72 h [4] | solubility kinetic [5]
CCc1ccccc1N/C(=N\O)c1ccc(OC)cc1 | > 50 µg/mL | > 5 µg/mL | 2 min | 397 µL/min/mg |  |  | 
COc1ccc(/C(=N/O)Nc2cccc(C#N)c2)cc1 |  | > 5 µg/mL |  |  | 2.41 | > 10 µg/mL | 50 µM (≈ 13.4 µg/mL)
Cc1cccc(C)c1/C(=N/O)NC1CCCCC1 | > 50 µg/mL | > 5 µg/mL | 11 min | 76 µL/min/mg |  |  | 
CCCCCC(C)NCc1coc(-c2ccc(Oc3ccc(C)cc3)cc2)n1 (stereo unspecified) |  | 0.3 µg/mL (≈ 0.793 µM) | 70 min | 12 µL/min/mg |  | 1.42 µg/mL (≈ 3.75 µM) | 
CC(C)(C)c1ccc(Oc2ncccc2/C(=N/O)NC2CCCCC2)cc1 |  | 0.07 µg/mL (≈ 0.19 µM) | 9 min | 95 µL/min/mg |  | > 10 µg/mL | 13 µM (≈ 4.78 µg/mL)
Cc1ccc(-c2nc(CNCCC3CCCN3C)c(C)o2)cc1 (stereo unspecified) |  | 0.43 µg/mL (≈ 1.37 µM) |  |  | 3.3 | 7.78 µg/mL (≈ 24.8 µM) | > 200 µM
Cc1ccc(CNC(c2nc(Cc3ccccc3)c(N3CCOCC3)o2)C2CCCCC2)cc1 (stereo unspecified) |  | 2.45 µg/mL (≈ 5.33 µM) | 4 min | 236 µL/min/mg |  | > 10 µg/mL | 3 µM (≈ 1.38 µg/mL)
COc1ccc(/C(=N/O)Nc2cccc(F)c2)cc1 |  | 0.67 µg/mL (≈ 2.57 µM) | 5.93 min | 143.33 µL/min/mg | 3.09 | > 10 µg/mL | 50 µM (≈ 13 µg/mL)
COc1ccc(N/C(=N/O)c2ccccc2-c2ccccc2)cc1 | > 50 µg/mL | > 5 µg/mL | 5 min | 166 µL/min/mg |  |  | 
CCCCCC(C)NCc1coc(-c2ccc(OCCC)cc2)n1 (stereo unspecified) | 27.5 µg/mL (≈ 83.4 µM) | 0.54 µg/mL (≈ 1.63 µM) | 27 min | 31 µL/min/mg |  | < 3.13 µg/mL | 
CCCCCC(C)NCc1coc(-c2ccc(OCCc3ccccc3)cc2)n1 (stereo unspecified) |  | 0.39 µg/mL (≈ 0.994 µM) | 22 min | 39 µL/min/mg |  | 0.72 µg/mL (≈ 1.83 µM) | 
CCc1ccccc1/C(=N\O)NC1CCCCC1 | > 50 µg/mL | 3.58 µg/mL (≈ 14.5 µM) | 7 min | 128 µL/min/mg |  |  | 
O=C1CCCN1CCCNc1cc(-c2ccccc2)nc2cc(-c3ccc(F)cc3)nn12 |  | > 5 µg/mL |  |  | 4.77 | > 10 µg/mL | 6 µM (≈ 2.58 µg/mL)
CCCCCC(C)NCc1coc(-c2ccc(OCc3ccc(C)cc3)cc2)n1 (stereo unspecified) |  | 0.31 µg/mL (≈ 0.79 µM) | 64 min | 13 µL/min/mg |  | 1.27 µg/mL (≈ 3.24 µM) | 
CCC(C)C(NCc1ccc(C)cc1)c1nc(Cc2ccccc2)c(N2CCOCC2)o1 (stereo unspecified) |  | 2.61 µg/mL (≈ 6.02 µM) | 2 min | 378 µL/min/mg |  | > 10 µg/mL | 6 µM (≈ 2.6 µg/mL)
COc1ccc(/C(=N/O)Nc2ccc(F)cc2)cc1 |  | 4.54 µg/mL (≈ 17.4 µM) | 7 min | 118 µL/min/mg | 3.02 | > 10 µg/mL | 100 µM (≈ 26 µg/mL)
CCCCCC(C)NCc1coc(-c2ccc(Oc3ccc(F)cc3)cc2)n1 (stereo unspecified) |  | 0.44 µg/mL (≈ 1.15 µM) | 63 min | 13 µL/min/mg |  | 1.63 µg/mL (≈ 4.26 µM) | 
CCCCCC(C)NCc1coc(-c2ccc(OCC(C)(C)C)cc2)n1 (stereo unspecified) |  | 0.19 µg/mL (≈ 0.53 µM) | 70 min | 12 µL/min/mg |  | 0.65 µg/mL (≈ 1.81 µM) | 6 µM (≈ 2.15 µg/mL)
CCCCCC(C)NCc1coc(-c2ccc(OCCCC)c(F)c2)n1 (stereo unspecified) |  | 0.37 µg/mL (≈ 1.02 µM) | 75 min | 11 µL/min/mg |  | 0.73 µg/mL (≈ 2.01 µM) | 
CCCCCC(C)NCc1coc(-c2ccc(OCc3ccccc3)cc2)n1 (stereo unspecified) |  | 0.55 µg/mL (≈ 1.45 µM) | 97 min | 9 µL/min/mg |  | 1.41 µg/mL (≈ 3.73 µM) | 1 µM (≈ 0.379 µg/mL)
COc1ccc(N/C(=N/O)c2ccc(OC)cc2)cc1 | > 50 µg/mL | > 5 µg/mL | 2 min | 376 µL/min/mg |  |  | 
CCC(C)C1C(=O)CC(=O)N1C(=O)OC(C)(C)C (stereo unspecified) |  | > 5 µg/mL |  |  | 4.54 | > 10 µg/mL | > 200 µM
Fc1cccc(-c2cc3nc(-c4ccccc4)cc(NCCCN4CCCC4)n3n2)c1 |  | 1.02 µg/mL (≈ 2.45 µM) |  |  | 4.79 | 2.49 µg/mL (≈ 5.99 µM) | 3 µM (≈ 1.25 µg/mL)
CCCCCC(C)NCc1coc(-c2ccc(OCc3ccc(Cl)cc3)cc2)n1 (stereo unspecified) |  | 0.47 µg/mL (≈ 1.14 µM) | 41 min | 21 µL/min/mg |  | 1.67 µg/mL (≈ 4.04 µM) | 
CCCCCOc1ccc(-c2nc(CNC3CCCCCC3)co2)cc1 | 29.5 µg/mL (≈ 82.8 µM) | 0.25 µg/mL (≈ 0.701 µM) | 101 min | 8 µL/min/mg |  | < 3.13 µg/mL | 
CCCCCC(C)NCc1coc(-c2ccc(C(C)C)cc2)n1 (stereo unspecified) |  | 0.6 µg/mL (≈ 1.91 µM) | 24 min | 36 µL/min/mg |  | 1.33 µg/mL (≈ 4.23 µM) | 3 µM (≈ 0.943 µg/mL)
